According to US7605156B2, “Methods for the use of inhibitors of cytosolic phospholipase A2” (Wyeth, priority 2001, dated 2009):

Biological target: T1, cPLA2 (Homo sapiens, UniProt P47712)
T1 sequence (P47712 1-749): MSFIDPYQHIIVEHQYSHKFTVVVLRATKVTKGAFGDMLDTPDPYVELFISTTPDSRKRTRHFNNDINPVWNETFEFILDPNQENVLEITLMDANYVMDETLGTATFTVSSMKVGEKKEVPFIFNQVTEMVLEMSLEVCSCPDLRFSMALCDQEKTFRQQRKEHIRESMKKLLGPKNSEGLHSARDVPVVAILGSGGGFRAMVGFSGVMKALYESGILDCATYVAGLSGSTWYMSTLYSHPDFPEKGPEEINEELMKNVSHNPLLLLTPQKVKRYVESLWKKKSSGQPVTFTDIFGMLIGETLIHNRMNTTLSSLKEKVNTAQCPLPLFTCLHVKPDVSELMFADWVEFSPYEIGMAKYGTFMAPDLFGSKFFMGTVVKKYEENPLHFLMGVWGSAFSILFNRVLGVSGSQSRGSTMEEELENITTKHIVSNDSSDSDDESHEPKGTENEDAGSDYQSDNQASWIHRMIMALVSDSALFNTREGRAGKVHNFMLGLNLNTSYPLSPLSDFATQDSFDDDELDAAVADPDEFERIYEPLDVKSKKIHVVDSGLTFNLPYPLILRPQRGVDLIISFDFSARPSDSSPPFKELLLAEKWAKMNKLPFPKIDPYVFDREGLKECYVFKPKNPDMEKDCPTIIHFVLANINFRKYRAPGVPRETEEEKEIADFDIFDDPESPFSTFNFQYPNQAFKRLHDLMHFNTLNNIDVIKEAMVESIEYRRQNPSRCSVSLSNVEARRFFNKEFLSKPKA
Assay: Coumarine assay (hydrolysis of 7-hydroxycoumarinyl 6-heptenoate)
Assay type: biochemical
Conditions: 60 μM 7-hydroxycoumarinyl 6-heptenoate, pH 7.5; read-out: Coumarin IC50
Method: Inhibitors were mixed with 200 μL assay buffer (80 mM Heped, pH 7.5, 1 mM EDTA) containing 60 μM 7-hydroxycoumarinyl 6-heptenoate. The reaction was initiated by adding 4 μg cPLA2 in 50 μL assay buffer. Hydrolysis of the 7-hydroxycounarimyl 6-heptenoate ester was monitored in a fluorometer by exciting at 360 nm and monitoring emission at 460 nm. Enzyme activity is proportional to the increase in emission at 460 nm per minute. In the presence of a cPLA2 inhibitor, the rate of increase is less.

Row | Molecule | IC50 [nM]
1 | Cc1cccc(Cl)c1S(=O)(=O)NCCc1c(CCCc2ccc(C(=O)O)cc2)c2cc(Cl)ccc2n1C(c1ccccc1)c1ccccc1 [Example 226] | 140
2 | O=C(O)c1ccc(CCCc2c(CCNS(=O)(=O)c3ccccc3Cl)n(C(c3ccccc3)c3ccccc3)c3ccccc23)cc1 [Example 295, 4-{3-[1-benzhydryl-2-(2-{[(2-chlorophenyl)sulfonyl]amino}ethyl)-1H-indol-3-yl]propyl}benzoic acid] | 550
3 | CCc1cccc(CC)c1S(=O)(=O)NCCc1c(CCCc2ccc(C(=O)O)cc2)c2cc(Cl)ccc2n1C(c1ccccc1)c1ccccc1 [Example 273, 4-{3-[1-benzhydryl-5-chloro-2-(2-{[(2,6-diethylphenyl)sulfonyl]amino}ethyl)-1H-indol-3-yl]propyl}benzoic acid] | 110
4 | Cc1ccc(S(=O)(=O)NCCc2c(CCCc3ccc(C(=O)O)cc3)c3cc(Cl)ccc3n2C(c2ccccc2)c2ccccc2)cc1Cl [Example 261, 4-{3-[1-benzhydryl-5-chloro-2-(2-([(3-chloro-4-methylphenyl)sulfonyl]amino}ethyl)-1H-indol-3-yl]propyl}benzoic acid] | 250
5 | COc1cc(C)ccc1S(=O)(=O)NCCc1c(CCOc2ccc(C(=O)O)cc2)c2cc(Cl)ccc2n1C(c1ccccc1)c1ccccc1 [Example 171, 4-{2-[1-benzhydryl-5-chloro-2-(2-{[(2-methoxy-4-methylphenyl)sulfonyl]amino}ethyl)-1H-indol-3-yl]ethoxy}benzoic acid] | 360
6 | O=C(O)c1ccc(OCCc2c(CCNS(=O)(=O)c3ccccc3[N+](=O)[O-])n(C(c3ccccc3)c3ccccc3)c3ccc(Cl)cc23)cc1 [Example 265, 4-{2-[1-benzhydryl-5-chloro-2-(2-{[(2-nitrophenyl)sulfonyl]amino}ethyl)-1H-indol-3-yl]ethoxy}benzoic acid] | 370
7 | O=C(O)c1ccc(OCCc2c(CCNS(=O)(=O)Cc3ccccc3)n(C(c3ccccc3)c3ccccc3)c3ccc(N4CCOCC4)cc23)cc1 [Example 33, 4-[2-(1-benzhydryl-2-{2-[(benzylsulfonyl)amino]ethyl}-5-morpholin-4-yl-1H-indol-′3-yl)ethoxy]benzoic acid] | 2900
8 | O=S(=O)(Cc1ccc(Cl)c(Cl)c1)NCCc1c(CCOc2ccc(-c3nn[nH]n3)cc2)c2cc(Cl)ccc2n1C(c1ccccc1)c1ccccc1 [Example 192, N-[2-(1-benzhydryl-5-chloro-3-{2-[4-(2H-tetraazol-5-yl)phenoxy]ethyl}-1H-indol-2-yl)ethyl]-1-(3,4-dichlorophenyl)methanesulfonamide] | < 3700
9 | O=C(O)c1ccc(OCCc2c(CCNS(=O)(=O)c3ccccc3Br)n(C(c3ccccc3)c3ccccc3)c3ccc(Cl)cc23)cc1 [Example 165, 4-{2-[1-benzhydryl-2-(2-{[(2-bromophenyl)sulfonyl]amino}ethyl)-5-chloro-1H-indol-3-yl]ethoxy}benzoic acid] | 530
10 | O=C(O)c1ccc(OCCc2c(CCNS(=O)(=O)c3ccc(Cl)c4nonc34)n(C(c3ccccc3)c3ccccc3)c3ccc(Cl)cc23)cc1 [Example 174, 4-{2-[1-benzhydryl-5-chloro-2-(2-{[(7-chloro-2,1,3-benzoxadiazol-4-yl)sulfonyl]amino}ethyl)-1H-indol-3-yl]ethoxy}benzoic acid] | 1100
11 | NCc1ccccc1S(=O)(=O)NCCc1c(CCOc2ccc(C(=O)O)cc2)c2cc(Cl)ccc2n1C(c1ccccc1)c1ccccc1 [Example 163, 4-(2-{2-[2-({[2-(aminomethyl)phenyl]sulfonyl}amino)ethyl]-1-benzhydryl-5-chloro-1H-indol-3-yl}ethoxy)benzoic acid] | 300
12 | O=C(O)c1ccc(CCCc2c(CCNS(=O)(=O)c3c(Cl)cc(Cl)cc3Cl)n(C(c3ccccc3)c3ccccc3)c3ccc(Cl)cc23)cc1 [Example 154, 4-{3-[1-benzhydryl-5-chloro-2-(2-([(2,4,6-trichlorophenyl)sulfonyl]amino}ethyl)-1H-indol-3-yl]propyl}benzoic acid] | 350
13 | Cc1c(Cl)cc(F)cc1S(=O)(=O)NCCc1c(CCCc2ccc(C(=O)O)cc2)c2cc(Cl)ccc2n1C(c1ccccc1)c1ccccc1 [Example 263, 4-{3-[1-benzhydryl-5-chloro-2-(2-{[(3-chloro-5-fluoro-2-methylphenyl)sulfonyl]amino}ethyl)-1H-indol-3-yl]propyl}benzoic acid] | 320
14 | O=C(O)c1ccc(OCCc2c(CCNS(=O)(=O)CCN3CCC(O)CC3)n(C(c3ccccc3)c3ccccc3)c3ccc(Cl)cc23)cc1 [Example 123, 4-[2-(1-Benzhydryl-5-chloro-2-{2-[2-(4-hydroxy-piperidin-1-yl)-ethanesulfonylamino]-ethyl}-1H-indol-3-yl)-ethoxy]-benzoic acid] | 1500
15 | O=C(O)c1ccc(CCCc2c(CCNS(=O)(=O)c3cc(Cl)c(F)cc3F)n(C(c3ccccc3)c3ccccc3)c3ccc(Cl)cc23)cc1 [Example 166, 4-{3-[1-benzhydryl-5-chloro-2-(2-{[(5-chloro-2,4-difluorophenyl)sulfonyl]amino}ethyl)-1H-indol-3-yl]propyl}benzoic acid] | 400
16 | CC(CCl)c1ccccc1S(=O)(=O)NCCc1c(CCCc2ccc(C(=O)O)cc2)c2cc(Cl)ccc2n1C(c1ccccc1)c1ccccc1 (stereo not drawn) [Example 277, 4-(3-{1-Benzhydryl-5-chloro-2-[2-({[2-(2-chloro-1-methylethyl)phenyl]sulfonyl}amino)ethyl]-1H-indol-3-yl}propyl)benzoic acid] | 600
17 | O=C(O)CCc1ccc(S(=O)(=O)CCc2c(CCNS(=O)(=O)Cc3ccc(Cl)c(Cl)c3)n(C(c3ccccc3)c3ccccc3)c3ccc(Cl)cc23)cc1 [Example 129, 3-[4-({2-[1-benzhydryl-5-chloro-2-(2-{[(3,4-dichlorobenzyl)sulfonyl]amino}ethyl)-1H-indol-3-yl]ethyl}sulfonyl)phenyl] propanoic acid] | 130
18 | Cc1cccc(Cl)c1S(=O)(=O)NCCc1c(CCOc2ccc(C(=O)O)c(F)c2)c2cc(Cl)ccc2n1C(c1ccccc1)c1ccccc1 [Example 191, 4-(2-{1-Benzhydryl-5-chloro-2-[2-(2-chloro-6-methyl-benzenesulfonylamino)-ethyl]-1H-indol-3-yl}-ethoxy)-2-fluoro-benzoic acid] | 200
19 | Cc1nc(S(=O)(=O)NCCc2c(CCCc3ccc(C(=O)O)cc3)c3cc(Cl)ccc3n2C(c2ccccc2)c2ccccc2)cn1C [Example 257, 4-{3-[1-benzhydryl-5-chloro-2-(2-{[(1,2-dimethyl-1H-imidazol-4-yl)sulfonyl]amino}ethyl)-1H-indol-3-yl]propyl}benzoic acid] | 500
20 | Cc1cccc(Cl)c1S(=O)(=O)NCCc1c(CCOc2ccc(C(=O)O)cc2)c2cc(Cl)ccc2n1C(c1ccccc1)c1ccccc1 [Example 227, 4-{2-[1-benzhydryl-5-chloro-2-(2-{[(2-chloro-6-methylphenyl)sulfonyl]amino}ethyl)-1H-indol-3-yl]ethoxy}benzoic acid] | 160
21 | O=C(O)c1ccc(OCCc2c(CCNS(=O)(=O)c3ccccc3-c3ccccc3)n(C(c3ccccc3)c3ccccc3)c3ccc(Cl)cc23)cc1 [Example 164, 4-[2-(1-benzhydryl-2-{2-[(1,1′-biphenyl-2-ylsulfonyl)amino]ethyl}-5-chloro-1H-indol-3-yl)ethoxy]benzoic acid] | 200
22 | CS(=O)(=O)c1ccccc1S(=O)(=O)NCCc1c(CCOc2ccc(C(=O)O)cc2)c2cc(Cl)ccc2n1C(c1ccccc1)c1ccccc1 [Example 205] | 370
23 | 4-(3-{2-[2-({[2-(aminomethyl)phenyl]sulfonyl}amino)ethyl]-1-benzhydryl-5-chloro-1H-indol-3-yl}propyl)benzoic acid [Example 156] | 160
24 | O=C(O)c1ccc(OCCc2c(CCNS(=O)(=O)c3cc(F)c(Cl)cc3F)n(C(c3ccccc3)c3ccccc3)c3ccc(Cl)cc23)cc1 [Example 170, 4-{2-[1-benzhydryl-5-chloro-2-(2-{[(4-chloro-2,5-difluorophenyl)sulfonyl]amino}ethyl)-1H-indol-3-yl]ethoxy}benzoic acid] | 950
25 | O=C(O)c1ccc(OCCc2c(CCNS(=O)(=O)c3ccc(-c4ccc(F)cc4)cc3)n(C(c3ccccc3)c3ccccc3)c3ccc(Cl)cc23)cc1 [Example 217, 4-{2-[1-benzhydryl-5-chloro-2-(2-{[(4′-fluoro-1,1′-biphenyl-4-yl)sulfonyl]amino}ethyl)-1H-indol-3-yl]ethoxy}benzoic acid] | 2600
26 | O=C(O)c1ccc(CCCc2c(CCNS(=O)(=O)c3ccccc3-c3ccccc3)n(C(c3ccccc3)c3ccccc3)c3ccc(Cl)cc23)cc1 [Example 157, 4-[3-(1-benzhydryl-2-{2-[(1,1′-biphenyl-2-ylsulfonyl)amino]ethyl}-5-chloro-1H-indol-3-yl)propyl]benzoic acid] | 200
27 | O=C(O)c1ccc(CCCc2c(CCNS(=O)(=O)c3ccc(N4CCOCC4)nc3)n(C(c3ccccc3)c3ccccc3)c3ccc(Cl)cc23)cc1 [Example 181, 4-{3-[1-benzhydryl-5-chloro-2-(2-{[(6-morpholin-4-ylpyridin-3-yl)sulfonyl]amino}ethyl)-1H-indol-3-yl]propyl}benzoic acid] | 320
